This is an account of results in patent US10986834B2, “Peptide-containing composition and stabilizer, stabilizing method, and storage method for peptide” (KANEKA CORPORATION, priority 2016, dated 2021).

Each structure is given as a SMILES string.

The conditions of this data set: 1% by mass in distilled water at 25° C. How it is done: Potassium sulfate, dipotassium hydrogen phosphate, and potassium bicarbonate components were each dissolved in distilled water at 25° C. to be a concentration of 1% by mass and stirred sufficiently.
As to `O=P([O-])([O-])O.[K+].[K+]` [Dipotassium hydrogen phosphate], the pH stood at 9.0.

`O=C([O-])O.[K+]` [Potassium bicarbonate] registered a pH of 8.3. `O=S(=O)([O-])[O-].[K+].[K+]` [Potassium sulfate] had a pH of 3.3.
